Legend:
Major Urinary Protein = molecular target: T1, Major Urinary Protein (Mus musculus, UniProt P11588); assay: S2axis order parameters of valine methyl groups from 600 MHz 13C R1/R2 relaxation of valine-enriched MUP and its complexes; conditions: for S^2axis: MUP-ligand complex, 600 MHz, 30° C., pH 7.0
T1 construct: made in house; host or cells: E. coli M15 cells with vector pqe30 MUP
T1 sequence (P11588 19-180): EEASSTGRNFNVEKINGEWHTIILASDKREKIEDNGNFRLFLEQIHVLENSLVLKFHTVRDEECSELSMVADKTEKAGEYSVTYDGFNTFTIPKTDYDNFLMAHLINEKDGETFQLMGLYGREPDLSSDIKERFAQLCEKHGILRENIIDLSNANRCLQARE
Procedure: Samples of [^13C^γ1,^γ2HD2]-U-^2H valine enriched MUP both alone and complexed with 2-methoxy-3-isopropylpyrazine and 2-methoxy-3-isobutylpyrazine were prepared from a single sample at pH 7.0 and a protein concentration of 1 mM. A further sample of methyl-^13C, ^2H enriched MUP was prepared at pH 7.0 and a protein concentration of 0.5 mM. Longitudinal (R1) and transverse (R2) ^13C relaxation rates were determined essentially as described by Ishima et al., J. Am. Chem. Soc. 121:11589-11590, 1999. All spectra were recorded at a proton frequency of 600 MHz and a probe temperature of 30° C. R1 rates were determined with relaxation delay times of 16, 64, 128, 240, 400, 720, 1120, 1600, 2240 and 2880 milliseconds. R2 rates were determined with relaxation delay times of 16, 32, 48, 64, 96, 160, 192, 240 and 288 milliseconds, and an effective field strength of 2 kHz. Relaxation data were fit to a single exponential decay function I=I0exp(−tR), where I0 is the initial resonance intensity, t is the relaxation delay time and R is the relaxation rate (R1 or R2). Relaxation data were fitted to the Lipari-Szabo model-free spectral density of the form: J(ω)=S^2τm/(1+ω^2τ^2m)+(1−S^2)τi/(1+ω^2τi^2), where τi^−1=τM^−1+τe^−1, τM is the overall molecular tumbling correlation time and τe is the effective internal correlation time. See Lipari and Szabo, J. Am. Chem. Soc. 104:4546-4559, 1982. This equation is valid for fast internal motions, τe<<τM, under which conditions the order parameter for methyl CH dipolar relaxation is given by S^2=Saxis^2[P2(cos θH]^2. Saxis^2 is the order parameter of the methyl rotation axis and θH is the angle made by the axis and the CH bond vector. A global rotational correlation time of […] was used for these calculations, according to the previously reported value. Zidek et al., Nature Str. Biol. 6:1118-1121, 1999. Although the valine residues were perdeuterated at non-methyl positions, the protein was otherwise protonated, and dipolar relaxation due to these “external” protons is not negligible for ^13C relaxation. Thus, by analogy with the work of Ishima et al. J. Am. Chem. Soc. 123:6164-6171, 2001, the contribution of these external protons to ^13C R2 values was estimated at 25% from the X-ray coordinates of MUP. Consequently, measured ^13C R^2 rates were multiplied by 0.75 to account for these external dipolar relaxation processes.

MUP [1] = molecular target: T2, MUP (Mus musculus, UniProt P11588); assay: Binding of small hydrophobic ligands to MUP (Kd)
T2 construct: made in house; host or cells: E. coli M15 cells with vector pqe30 MUP
T2 sequence (P11588 19-180): T1 sequence (P11588 19-180)

MUP [2] = molecular target: T2, MUP; assay: 13C-1H HSQC spectra of valine-enriched MUP complexes; conditions: 13C-1H HSQC of complexes with valine-enriched MUP
Mouse Urinary Protein = molecular target: T3, Mouse Urinary Protein (Mus musculus, UniProt P11588); assay: 13C NMR relaxation (T1, T2) of valine 13CHD2-labeled MUP in absence and presence of ligand; conditions: for T1, Change / T2, Change: Protein vs Bound Protein; for T1, Bound Protein / T2, Bound Protein: 298 K;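 on T1, Bound Protein: unit milliseconds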;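 on T2, Bound Protein: unit milliseconds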
T3 construct: made in house; host or cells: E. coli M15 cells with vector pqe30 MUP
T3 sequence (P11588 19-180): T1 sequence (P11588 19-180)
Procedure: A 15 mg sample of L-valine-α-D-^12CD(^13CHD2)2 labeled MUP was dissolved in 650 μL phosphate buffered saline (10 mM potassium phosphate; 200 mM sodium chloride), to which was added 50 μL deuterium oxide. ^13C Relaxation rates (R2 and R1) of ^13CHD2 groups were determined using pulse sequences as described in Ishima et al., J. Am. Chem. Soc. 121:11589-11590 (1999). Spectral parameters were as follows: spectral width in the ^13C dimension, 900 Hz; spectral width in the ^1H dimension, 5200 Hz; number of real data points in the ^13C dimension, 128; number of real points in the ^1H dimension, 1408; number of transients per t1 increment, 8; probe temperature, 298 K. Prior to two-dimensional Fourier transformation, free induction decays were apodized with cosine-bell windowing functions according to known methods.
The NMR analysis was then repeated following addition of the small molecule ligand 1 μL of isobutyl pyrazine or 1 μL of isopropyl pyrazine to separate solutions of MUP. The data shown below in Tables I and II and in FIG. 8 were obtained, clearly showing the changes in T1 and T2 values obtained on addition of these small molecule ligands.

[3] = valine methyl 59.HG1 (first line)
[4] = valine methyl 59.HG1 (second line)

COc1nccnc1C(C)C [2-methoxy-3-isopropylpyrazine]
changes in Saxis^2 of the six valine residues in MUP upon binding (Major Urinary Protein): only minor changes | S^2axis (Major Urinary Protein; Val-12 C^γ1): 0.90 | S^2axis (Major Urinary Protein; Val-12 C^γ2): 0.69 | S^2axis (Major Urinary Protein; Val-47 C^γ1): 0.84 | S^2axis (Major Urinary Protein; Val-47 C^γ2): 0.90 | S^2axis (Major Urinary Protein; Val-53 C^γ1): 0.80 | S^2axis (Major Urinary Protein; Val-53 C^γ2): 0.85 | S^2axis (Major Urinary Protein; Val-59 C^γ1): 0.68 | S^2axis (Major Urinary Protein; Val-59 C^γ2): 0.86 | S^2axis (Major Urinary Protein; Val-70 C^γ1): 0.85 | S^2axis (Major Urinary Protein; Val-70 C^γ2): 0.77 | S^2axis (Major Urinary Protein; Val-82 C^γ1): 0.50 | S^2axis (Major Urinary Protein; Val-82 C^γ2): 0.48 | contribution of valine side-chains to the entropy of binding (Major Urinary Protein; from computations of Saxis^2 values, free protein and complexes): do not contribute significantly | Kd (MUP [1]): 560 nM | shift perturbations of Val 82 γ1 and γ2 correlations (MUP [2]): Significant shift perturbations | T1, Change (Mouse Urinary Protein; 12.HG1): −8.387 milliseconds | T2, Change (Mouse Urinary Protein; 12.HG1): −8.329 milliseconds | T1, Change (Mouse Urinary Protein; 12.HG2): −40.959 milliseconds | T2, Change (Mouse Urinary Protein; 12.HG2): −9.198 milliseconds | T1, Change (Mouse Urinary Protein; 47.HG1): 2.421 milliseconds | T2, Change (Mouse Urinary Protein; 47.HG1): −13.342 milliseconds | T1, Change (Mouse Urinary Protein; 47.HG2): −76.984 milliseconds | T2, Change (Mouse Urinary Protein; 47.HG2): −4.561 milliseconds | T1, Change (Mouse Urinary Protein; 53.HG1): −50.272 milliseconds | T2, Change (Mouse Urinary Protein; 53.HG1): −14.174 milliseconds | T1, Change (Mouse Urinary Protein; 53.HG2): 8.962 milliseconds | T2, Change (Mouse Urinary Protein; 53.HG2): −7.866 milliseconds | T1, Change (Mouse Urinary Protein; 59.HG1 (first line)): −91.665 milliseconds | T2, Change (Mouse Urinary Protein; 59.HG1 (first line)): −16.574 milliseconds | T1, Change (Mouse Urinary Protein; 59.HG1 (second line)): −49.656 milliseconds | T2, Change (Mouse Urinary Protein; 59.HG1 (second line)): −6.181 milliseconds | T1, Change (Mouse Urinary Protein; 70.HG1): 209.318 milliseconds | T2, Change (Mouse Urinary Protein; 70.HG1): −41.741 milliseconds | T1, Change (Mouse Urinary Protein; 70.HG2): 86.431 milliseconds | T2, Change (Mouse Urinary Protein; 70.HG2): 11.930 milliseconds | T1, Change (Mouse Urinary Protein; 82.HG1): −10.201 milliseconds | T2, Change (Mouse Urinary Protein; 82.HG1): 10.857 milliseconds | T1, Change (Mouse Urinary Protein; 82.HG2): 0.991 milliseconds | T2, Change (Mouse Urinary Protein; 82.HG2): 19.924 milliseconds | contribution of valine side-chains to the entropy of binding (Mouse Urinary Protein; from relaxation data in the presence of ligand): do not contribute significantly | T1, Bound Protein (Mouse Urinary Protein; valine methyl 12.HG1): 1733.309 milliseconds | T2, Bound Protein (Mouse Urinary Protein; valine methyl 12.HG1): 161.437 milliseconds | T1, Bound Protein (Mouse Urinary Protein; valine methyl 12.HG2): 1509.370 milliseconds | T2, Bound Protein (Mouse Urinary Protein; valine methyl 12.HG2): 192.512 milliseconds | T1, Bound Protein (Mouse Urinary Protein; valine methyl 47.HG1): 1626.298 milliseconds | T2, Bound Protein (Mouse Urinary Protein; valine methyl 47.HG1): 168.574 milliseconds | T1, Bound Protein (Mouse Urinary Protein; valine methyl 47.HG2): 1067.605 milliseconds | T2, Bound Protein (Mouse Urinary Protein; valine methyl 47.HG2): 155.315 milliseconds | T1, Bound Protein (Mouse Urinary Protein; valine methyl 53.HG1): 2283.543 milliseconds | T2, Bound Protein (Mouse Urinary Protein; valine methyl 53.HG1): 177.873 milliseconds | T1, Bound Protein (Mouse Urinary Protein; valine methyl 53.HG2): 1355.764 milliseconds | T2, Bound Protein (Mouse Urinary Protein; valine methyl 53.HG2): 158.149 milliseconds | T1, Bound Protein (Mouse Urinary Protein; [3]): 1374.428 milliseconds | T2, Bound Protein (Mouse Urinary Protein; [3]): 195.222 milliseconds | T1, Bound Protein (Mouse Urinary Protein; [4]): 1572.793 milliseconds | T2, Bound Protein (Mouse Urinary Protein; [4]): 153.897 milliseconds | T1, Bound Protein (Mouse Urinary Protein; valine methyl 70.HG1): 1872.254 milliseconds | T2, Bound Protein (Mouse Urinary Protein; valine methyl 70.HG1): 162.943 milliseconds | T1, Bound Protein (Mouse Urinary Protein; valine methyl 70.HG2): 1077.097 milliseconds | T2, Bound Protein (Mouse Urinary Protein; valine methyl 70.HG2): 150.103 milliseconds | T1, Bound Protein (Mouse Urinary Protein; valine methyl 82.HG1): 925.102 milliseconds | T2, Bound Protein (Mouse Urinary Protein; valine methyl 82.HG1): 213.526 milliseconds | T1, Bound Protein (Mouse Urinary Protein; valine methyl 82.HG2): 668.810 milliseconds | T2, Bound Protein (Mouse Urinary Protein; valine methyl 82.HG2): 203.529 milliseconds
